# From US8445676B2, “Pyrrolotriazine kinase inhibitors” (Bristol-Myers Squibb Company, priority 2008, dated 2013)
# Like-named read-outs stand apart in the source and are kept apart here.
# Legend:
# Format in all cases: biochemical
# JAK2 = JAK2 (Homo sapiens, UniProt O60674); assay: JAK2 Tyrosine Kinase Assay
# Outline: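 Reaction of JAK2 with fluorescent substrate run 60 min at room temperature and stopped with EDTA. Substrate and phosphorylated product separated electrophoretically on a Caliper LabChip. Compounds tested at eleven concentrations in duplicate, with IC50 from non-linear regression.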
# JAK3 [1] = target: T1, JAK3 (Homo sapiens, UniProt P52333); assay: JAK3 Tyrosine Kinase Assay; details: prior-art compound, stated in the background; read-out: IC50 against JAK3
# T1 sequence (P52333 1-1124): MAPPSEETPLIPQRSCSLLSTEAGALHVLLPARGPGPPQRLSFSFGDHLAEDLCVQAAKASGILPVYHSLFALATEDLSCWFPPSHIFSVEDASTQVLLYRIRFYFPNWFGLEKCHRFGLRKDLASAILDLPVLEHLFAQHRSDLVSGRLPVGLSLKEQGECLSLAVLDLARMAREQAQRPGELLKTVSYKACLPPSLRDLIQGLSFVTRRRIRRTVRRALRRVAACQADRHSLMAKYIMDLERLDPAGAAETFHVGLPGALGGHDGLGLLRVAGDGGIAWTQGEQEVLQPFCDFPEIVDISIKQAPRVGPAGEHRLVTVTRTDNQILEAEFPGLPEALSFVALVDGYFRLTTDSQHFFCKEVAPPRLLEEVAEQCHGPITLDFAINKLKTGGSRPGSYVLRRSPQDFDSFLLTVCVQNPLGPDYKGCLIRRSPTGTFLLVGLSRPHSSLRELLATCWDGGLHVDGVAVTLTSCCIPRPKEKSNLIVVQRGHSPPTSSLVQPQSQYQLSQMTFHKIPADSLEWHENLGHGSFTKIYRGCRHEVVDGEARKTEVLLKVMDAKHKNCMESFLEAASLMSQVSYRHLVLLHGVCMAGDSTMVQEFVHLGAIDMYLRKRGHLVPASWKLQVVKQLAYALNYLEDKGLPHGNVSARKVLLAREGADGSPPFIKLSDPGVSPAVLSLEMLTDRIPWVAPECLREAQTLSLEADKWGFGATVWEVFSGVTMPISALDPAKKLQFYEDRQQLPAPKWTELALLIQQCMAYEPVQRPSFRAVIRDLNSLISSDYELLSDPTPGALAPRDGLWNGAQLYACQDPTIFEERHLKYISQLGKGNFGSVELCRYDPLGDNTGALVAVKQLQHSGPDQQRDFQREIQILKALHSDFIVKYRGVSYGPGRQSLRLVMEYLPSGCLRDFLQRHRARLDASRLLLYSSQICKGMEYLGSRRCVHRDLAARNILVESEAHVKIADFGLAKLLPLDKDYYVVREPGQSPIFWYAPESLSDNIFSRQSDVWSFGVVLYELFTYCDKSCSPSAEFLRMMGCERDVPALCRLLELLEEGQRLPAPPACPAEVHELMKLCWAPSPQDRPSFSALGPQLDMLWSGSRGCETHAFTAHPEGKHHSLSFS
# JAK3 [2] = target: T1, JAK3; assay: JAK3 Tyrosine Kinase Assay; details: ATP 8 μM; JAK3 2.5 nM; 60 min room temperature
# Procedure: JAK3 Tyrosine Kinase Assay
# The assays were performed in V-bottom 384-well plates. […] The reaction was initiated by the combination of JAK3 with substrates and test compounds. The reaction was incubated at room temperature for 60 min. and terminated by adding 45 μl of 35 mM EDTA to each sample. The reaction mixture was analyzed on the Caliper LabChip 3000 by electrophoretic separation of the fluorescent substrate and phosphorylated product. […] The final concentration of reagents in the assays is ATP, 8 μM; JAK3 fluorescent peptide, 1.5 μM; JAK3, 2.5 nM; and DMSO, 1.6%. […] Compounds were dissolved at 10 mM in dimethylsulfoxide (DMSO) and evaluated at eleven concentrations, each in duplicate. IC50 values were derived by non-linear regression analysis.
# [3] = ATP 30 μM, JAK2 1 nM, 60 min room temperature, read-out: Jak2(IC50)
# JAK2, sequence (O60674 whole entry): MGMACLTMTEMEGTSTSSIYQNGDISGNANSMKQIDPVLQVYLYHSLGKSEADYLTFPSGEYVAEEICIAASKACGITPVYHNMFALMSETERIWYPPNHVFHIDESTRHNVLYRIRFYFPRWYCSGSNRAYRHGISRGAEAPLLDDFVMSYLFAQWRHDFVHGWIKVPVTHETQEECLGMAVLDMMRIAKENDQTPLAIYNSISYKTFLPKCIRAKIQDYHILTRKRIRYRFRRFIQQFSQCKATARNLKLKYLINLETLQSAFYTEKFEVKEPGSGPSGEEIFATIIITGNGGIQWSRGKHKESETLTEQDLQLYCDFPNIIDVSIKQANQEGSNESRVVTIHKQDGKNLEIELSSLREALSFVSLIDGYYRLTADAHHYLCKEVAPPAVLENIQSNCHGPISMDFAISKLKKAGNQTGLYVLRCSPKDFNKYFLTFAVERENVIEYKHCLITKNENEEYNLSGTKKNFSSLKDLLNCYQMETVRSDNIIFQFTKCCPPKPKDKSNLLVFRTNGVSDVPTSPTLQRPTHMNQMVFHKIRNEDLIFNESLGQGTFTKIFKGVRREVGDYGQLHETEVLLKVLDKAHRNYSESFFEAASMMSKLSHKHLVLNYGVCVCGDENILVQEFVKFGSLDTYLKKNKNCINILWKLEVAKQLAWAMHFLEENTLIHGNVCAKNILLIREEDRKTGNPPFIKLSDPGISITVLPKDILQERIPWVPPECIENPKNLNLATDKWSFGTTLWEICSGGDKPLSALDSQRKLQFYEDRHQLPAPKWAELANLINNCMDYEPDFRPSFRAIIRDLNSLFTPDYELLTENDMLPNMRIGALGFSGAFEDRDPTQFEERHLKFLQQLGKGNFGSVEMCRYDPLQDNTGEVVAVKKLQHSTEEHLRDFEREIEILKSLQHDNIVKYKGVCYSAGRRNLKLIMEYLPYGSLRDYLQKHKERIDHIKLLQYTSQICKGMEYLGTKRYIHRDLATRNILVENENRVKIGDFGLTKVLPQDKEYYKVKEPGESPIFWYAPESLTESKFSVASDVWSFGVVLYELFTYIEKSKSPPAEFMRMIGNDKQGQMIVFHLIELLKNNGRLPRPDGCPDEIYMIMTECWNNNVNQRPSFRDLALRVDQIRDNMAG
"IC50 (JAK2; prior-art compound, stated in the background, read-out: IC50 against JAK2)",IC50 (JAK3 [1]),IC50 (JAK2; [3]),IC50 (JAK3 [2]),Compound
31 nM,460 nM,,,"Cc1cc(Nc2nc(N3CCNCC3)nn3cccc23)[nH]n1 [Example 74 of the publication, reference compound]"
,,1 nM,20 nM,"CO[C@@H](C(=O)N1CCN(c2nc(Nc3cc(C)[nH]n3)c3cccn3n2)CC1)c1ccccc1 [Example 110, 2-(4-((2R)-2-methoxy-2-phenylacetyl)-1-piperazinyl)-N-(5-methyl-1H-pyrazol-3-yl)pyrrolo[2,1-f][1,2,4]triazin-4-amine]"
,,0.898 nM,10 nM,"Cc1cc(Nc2nc(N3CCN(C(=O)c4cccc(C#N)c4)CC3)nn3cccc23)n[nH]1 [Example 66, 3-((4-(4-((5-methyl-1H-pyrazol-3-yl)amino)pyrrolo[2,1-f][1,2,4]triazin-2-yl)-1-piperazinyl)carbonyl)benzonitrile]"
,,0.697 nM,20 nM,"Cc1cc(Nc2nc(N3CCN(C(=O)Cc4ccc(OC(F)(F)F)cc4)CC3)nn3cccc23)n[nH]1 [Example 91, N-(5-methyl-1H-pyrazol-3-yl)-2-(4-((4-(trifluoromethoxy)phenyl)acetyl)-1-piperazinyl)pyrrolo[2,1-f][1,2,4]triazin-4-amine]"
,,7.07 nM,210 nM,"Cc1cc(Nc2nc(N3CCN(C(=O)C(C)(C)C)CC3)nn3cccc23)n[nH]1 [Example 168, 2-(4-(2,2-dimethylpropanoyl)-1-piperazinyl)-N-(5-methyl-1H-pyrazol-3-yl)pyrrolo[2,1-f][1,2,4]triazin-4-amine]"
,,7.16 nM,120 nM,"Cc1cnc(C(=O)N2CCN(c3nc(Nc4cc(C)[nH]n4)c4cccn4n3)CC2)cn1 [Example 32, 2-(4-((5-methyl-2-pyrazinyl)carbonyl)-1-piperazinyl)-N-(5-methyl-1H-pyrazol-3-yl)pyrrolo[2,1-f] [1,2,4]triazin-4-amine]"
,,0.887 nM,8.41 nM,"Cc1cc(Nc2nc(N3CCN(C(=O)Cc4ccc(C(F)(F)F)cc4C(F)(F)F)CC3)nn3cccc23)n[nH]1 [Example 134, 2-(4-((2,4-bis(trifluoromethyl)phenyl)acetyl)-1-piperazinyl)-N-(5-methyl-1H-pyrazol-3-yl)pyrrolo[2,1-f] [1,2,4]triazin-4-amine]"
,,320 nM,2060 nM,"Cc1cc(Nc2nc(N3CCN(C(=O)C(C)(C)c4ccccc4)CC3)nn3cccc23)n[nH]1 [Example 7, 2-(4-(2-methyl-2-phenylpropanoyl)-1-piperazinyl)-N-(5-methyl-1H-pyrazol-3-yl)pyrrolo[2,1-f] [1,2,4]triazin-4-amine]"
,,7.73 nM,160 nM,"Cc1cc(Nc2nc(N3CCN(C(=O)Cc4ccc(F)cc4F)CC3)nn3cccc23)n[nH]1 [Example 37, 2-(4-((2,4-difluorophenyl)acetyl)-1-piperazinyl)-N-(5-methyl-1H-pyrazol-3-yl)pyrrolo[2,1-f][1,2,4]triazin-4-amine]"
,,8.14 nM,50 nM,"Cc1cc(Nc2nc(N3CCN(C(=O)c4c(F)cccc4F)CC3)nn3cccc23)n[nH]1 [Example 20, 2-(4-(2,6-difluorobenzoyl)-1-piperazinyl)-N-(5-methyl-1H-pyrazol-3-yl)pyrrolo[2,1-f] [1,2,4]triazin-4-amine]"
,,130 nM,3050 nM,"Cc1cc(Nc2nc(N3CCN(C(=O)c4ccccc4S(C)(=O)=O)CC3)nn3cccc23)n[nH]1 [Example 193, N-(5-methyl-1H-pyrazol-3-yl)-2-(4-(2-(methylsulfonyl)benzoyl)-1-piperazinyl)pyrrolo[2,1-f][1,2,4]triazin-4-amine]"
,,8.15 nM,70 nM,"CO[C@H](C(=O)N1CCN(c2nc(Nc3cc(C)[nH]n3)c3cccn3n2)CC1)c1ccccc1 [Example 90, 2-(4-((2S)-2-methoxy-2-phenylacetyl)-1-piperazinyl)-N-(5-methyl-1H-pyrazol-3-yl)pyrrolo[2,1-f] [1,2,4]triazin-4-amine]"
,,1.12 nM,30 nM,"Cc1cc(Nc2nc(N3CCN(C(=O)Cc4c(Cl)cccc4Cl)CC3)nn3cccc23)n[nH]1 [Example 38, 2-(4-((2,6-dichlorophenyl)acetyl)-1-piperazinyl)-N-(5-methyl-1H-pyrazol-3-yl)pyrrolo[2,1-f][1,2,4]triazin-4-amine]"
,,2660 nM,50000 nM,"Cc1cc(Nc2nc(N3CCN(C(=O)Cc4ccc(C(F)(F)F)cc4)CC3)nn3cccc23)n[nH]1 [Example 43, N-(5-methyl-1H-pyrazol-3-yl)-2-(4-((4-(trifluoromethyl)phenyl)acetyl)-1-piperazinyl)pyrrolo[2,1-f][1,2,4]triazin-4-amine]"
,,590 nM,9480 nM,"Cc1cc(Nc2nc(N3CCN(C(=O)[C@@](C)(O)c4ccccc4)CC3)nn3cccc23)n[nH]1 [Example 211, (2S)-1-(4-(4-((5-methyl-1H-pyrazol-3-yl)amino)pyrrolo[2,1-f][1,2,4]triazin-2-yl)-1-piperazinyl)-1-oxo-2-phenyl-2-propanol]"
,,7.9 nM,170 nM,"COc1cccc(CC(=O)N2CCN(c3nc(Nc4cc(C)[nH]n4)c4cccn4n3)CC2)c1 [Example 49, 2-(4-((3-methoxyphenyl)acetyl)-1-piperazinyl)-N-(5-methyl-1H-pyrazol-3-yl)pyrrolo[2,1-f][1,2,4]triazin-4-amine]"
,,0.891 nM,10 nM,"COc1ccc(CC(=O)N2CCN(c3nc(Nc4cc(C)[nH]n4)c4cccn4n3)CC2)cc1 [Example 45, 2-(4-((4-methoxyphenyl)acetyl)-1-piperazinyl)-N-(5-methyl-1H-pyrazol-3-yl)pyrrolo[2,1-f][1,2,4]triazin-4-amine]"
,,150 nM,1410 nM,"Cc1cc(Nc2nc(N3CCN(C(=O)C4(c5ccc(F)cc5)CCCCC4)CC3)nn3cccc23)n[nH]1 [Example 126, 2-(4-((1-(4-fluorophenyl)cyclohexyl)carbonyl)-1-piperazinyl)-N-(5-methyl-1H-pyrazol-3-yl)pyrrolo[2,1-f] [1,2,4]triazin-4-amine]"
,,6.65 nM,90 nM,"Cc1cc(Nc2nc(N3CCN(C(=O)c4ncccn4)CC3)nn3cccc23)n[nH]1 [Example 95, N-(5-methyl-1H-pyrazol-3-yl)-2-(4-(2-pyrimidinylcarbonyl)-1-piperazinyl)pyrrolo[2,1-f] [1,2,4]triazin-4-amine]"
,,7.25 nM,120 nM,"Cc1cc(Nc2nc(N3CCN(C(=O)c4ccccc4-c4ccccc4)CC3)nn3cccc23)n[nH]1 [Example 200, 2-(4-(2-biphenylylcarbonyl)-1-piperazinyl)-N-(5-methyl-1H-pyrazol-3-yl)pyrrolo[2,1-f][1,2,4]triazin-4-amine]"
